Data taken from patent publication US20260250293A1, “ULODESINE SALT” (Laevoroc Immunology AG, priority 2021, published 2026).
Where two headings read alike, the source gives them in different places.

Experiments:
Format in all cases: physicochemical
[1] = Dynamic vapour sorption (DVS); conditions: for DVS hygroscopicity / DVS water uptake: 25° C.
Description: The moisture sorption profile was generated at 25° C. using a DVS moisture balance flow system (Model Advantage 1.0) with the following conditions: sample size approximately 10 mg, drying 25° C. for 60 minutes, adsorption range 0% to 95% RH, desorption range 95% to 0% RH, and step interval 5%. The equilibrium criterion was <0.01% weight change in 5 minutes for a maximum of 120 minutes.

[2] = Solid state stability study; conditions: for Purity(%): HPLC
Description: (closed) and 40° C./75% RH (open) conditions during 2 weeks. […] At 0, 1 week and 2 weeks' time points, the corresponding samples will be sampled for purity determination by HPLC to assess the chemical stability. Also, one more sample was prepared under corresponding condition for appearance and XRPD test to evaluate the physical stability.

[3] = Aqueous formulation stability; conditions: for formulation stability: in water at 0.1 mg/ml (calculated by freebase), room temperature, 14 days
Description: The sample condition was maintained at 21-25° C. and protected from light.
Duplicate samples were prepared by transfer 4 ml solution into an 8 mL glass bottle and all the samples were placed in dark under room temperature. At desired time points of 0, 3, 7, 10 and 14 days, the sample concentration was analysed by HPLC and the pH value was measured.

[4] = Thermodynamic solubility study in water, SGF, FaSSIF and FeSSIF; conditions: for XRPD of residual solid: after 24 hrs solubility study
Description: Then all the samples were vortex for 30 s to disperse homogenously and placed into a constant temperature shaking incubator at 37° C. with 200 rpm for 24 hrs. If the API dissolved, more material will be added to keep suspension state. The concentration, XRPD and pH were tested at desired time points.

[5] = listed as Ulodesine hemi-L-glutarate
[6] = 40° C./75% RH open, 2 weeks, listed as Ulodesine Hemi L-glutarate
[7] = solubility sample in FaSSIF(pH 6.5)
[8] = solubility sample in FeSSIF(pH 5)
[9] = solubility sample in SGF(pH 1.2)
[10] = 40° C./75% RH open, 2 weeks, listed as Ulodesine Hemi succinate
[11] = 60° C. close, 2 weeks, listed as Ulodesine Hemi succinate

## O=c1nc[nH]c2c(CN3C[C@H](CO)[C@@H](O)C3)c[nH]c12 [Ulodesine hemi L-glutarate]
[1]
  XRPD pre and post DVS: No change
  DVS hygroscopicity: Moderately hygroscopic
[1]; [5]
  DVS hygroscopicity: moderately hygroscopic
  XRPD pre and post DVS: no change
[1]; at 80% RH
  DVS water uptake: (2.53% at 80% RH;
[1]; at 80% RH, listed as Ulodesine hemi-L-glutarate
  DVS water uptake: 2.53%
[1]; at 95% RH
  DVS water uptake: 27.06% at 95% RH)
[2]; 0 d
  TRS(%) (=100% − purity %): 0.60%
  Purity(%): 99.403%
[2]; 40° C./75% RH condition, during 2 weeks
  degradation (related substance increase): no related substance increased
[2]; 40° C./75% RH open, 1 week
  TRS Change(%) (Compared to 0 d): −0.12%
  TRS(%) (=100% − purity %): 0.48%
  Purity(%): 99.524%
[2]; 40° C./75% RH open, 2 weeks
  Purity(%): 99.600%
[2]; [6]
  TRS Change(%) (Compared to 0 d): −0.20%
  TRS(%) (=100% − purity %): 0.40%
[2]; 60° C. close, 1 week
  TRS Change(%) (Compared to 0 d): 0.15%
  TRS(%) (=100% − purity %): 0.74%
  Purity(%): 99.258%
[2]; 60° C. close, 2 weeks
  TRS Change(%) (Compared to 0 d): 0.42% TRS
  Purity(%): 98.984%
[2]; 60° C. close, 2 weeks, listed as Ulodesine Hemi L-glutarate
  TRS Change(%) (Compared to 0 d): 0.42%
[2]; during 2 weeks under 60° C. and 40° C./75% RH conditions
  appearance and XRPD (polymorph) change: no appearance and polymorph change
[2]; under 40° C./75% RH condition
  chemical stability based on the purity result: more chemically stable than Ulodesine Hemi succinate
[3]; in water at 0.1 mg/ml (cal. by freebase), 14 days at room temperature, dark
  change of appearance, concentration and purity of solution: no significant change
[3]
  formulation stability: physically and chemically stable for 14 days
[3]; listed as ulodesine hemi L-glutarate
  formulation stability: good formulation stability
[4]; FaSSIF(pH 6.5)
  XRPD of residual solid: changed compared to initial solid form
[4]; FeSSIF(pH 5)
  XRPD of residual solid: changed compared to initial solid form
[4]; [7]
  pH value at 24 hrs: 7.72
[4]; [8]
  pH value at 24 hrs: 7.78
[4]; [9]
  pH value at 24 hrs: 7.75
[4]; solubility sample in water
  pH value at 24 hrs: 7.58
[4]; water
  XRPD of residual solid: changed compared to initial solid form

## O=c1nc[nH]c2c(CN3C[C@H](CO)[C@@H](O)C3)c[nH]c12 [Ulodesine hemi adipinate]
[1]
  XRPD pre and post DVS: No change
  DVS hygroscopicity: Moderately hygroscopic
[1]; at 80% RH
  DVS water uptake: (3.68% at 80% RH;
[1]; at 95% RH
  DVS water uptake: 15.80% at 95% RH)
[4]; [7]
  pH value at 24 hrs: 6.40
[4]; [8]
  pH value at 24 hrs: 6.09
[4]; [9]
  pH value at 24 hrs: 5.60
[4]; solubility sample in water
  pH value at 24 hrs: 6.56

## O=c1nc[nH]c2c(CN3C[C@H](CO)[C@@H](O)C3)c[nH]c12 [Ulodesine hemi succinate, reference compound]
[1]
  XRPD pre and post DVS: No change
  DVS hygroscopicity: Moderately hygroscopic
[1]; at 80% RH
  DVS water uptake: (6.97% at 80% RH;
[1]; at 95% RH
  DVS water uptake: 11.86% at 95% RH)
[2]; 0 d
  TRS(%) (=100% − purity %): 0.06%
  Purity(%): 99.942%
[2]; 40° C./75% RH open, 1 week
  TRS Change(%) (Compared to 0 d): 0.33%
  TRS(%) (=100% − purity %): 0.39%
  Purity(%): 99.613%
[2]; 40° C./75% RH open, 2 weeks
  TRS Change(%) (Compared to 0 d): 0.16% TRS increased at
  Purity(%): 99.782%
[2]; [10]
  TRS Change(%) (Compared to 0 d): 0.16%
  TRS(%) (=100% − purity %): 0.22%
[2]; 60° C. close, 1 week
  TRS Change(%) (Compared to 0 d): 0.13%
  TRS(%) (=100% − purity %): 0.18%
  Purity(%): 99.816%
[2]; 60° C. close, 2 weeks
  TRS Change(%) (Compared to 0 d): 0.34% TRS increased at
  Purity(%): 99.601%
[2]; [11]
  TRS Change(%) (Compared to 0 d): 0.34%
  TRS(%) (=100% − purity %): 0.40%
[4]; [7]
  pH value at 24 hrs: 6.16
[4]; [8]
  pH value at 24 hrs: 5.75
[4]; [9]
  pH value at 24 hrs: 5.32
[4]; solubility sample in water
  pH value at 24 hrs: 6.34
